Holding throughout (type): cell-based
Holding throughout (settings): 48 h; for AAM % / PBS %: 25 μM; for AAM %: mean fluorescence compared with Ac4ManNAz (AAM) positive control; for PBS %: mean fluorescence compared with PBS negative control; for Mean FL (×10^5): compound 25 μM, 37° C., DBCO-biotin then streptavidin-Cy5, mean fluorescence of live cells

Test [1] has as its system MDA-MB-231. Put plainly: Flow cytometry analysis of cell labeling (labeling efficiency of azido compounds) in MDA-MB-231. As for the experimental part:
(§1) Cells (2.0×10^5 cells/mL, 2 mL) were seeded in a 6-well culture plate and attached at 37° C. overnight. After washed thrice with PBS, the cells were incubated with an azido compound provided herein (25 μM) at 37° C. for 48 h. After washed thrice with PBS, the cells were incubated with DBCO-biotin (50 μM) in 500 μL serum free DMEM at 37° C. for 1 h. The cells were washed thrice with PBS and then incubated with streptavidin-Cy5 (5 μg/mL) in 500 μL serum free DMEM at 37° C. for 1 h. The cells were washed thrice with PBS, followed by addition of 300 μL 1× trypsin/EDTA for digestion. The lifted cells were transferred to a 1.5 mL EP tube, centrifuge at 1,000 rpm for 3 min, and washed with PBS once. Finally, 500 μL PBS containing 4% PFA was added to the cell pellet to fix the cells. The cell suspension was transferred to a flow tube and mixed with 10 μL of a PI working solution (50 μg/mL) at room temperature for 30 min before being subjected to flow cytometry.
(§2) Flow cytometry was used to characterize the labeling efficiency of a compound provided herein. After cells were labeled with an azido group, DBCO-biotin was added to specifically react with the azido group. Avidin-Cy5 was added bind to the cell surface biotin for a flow cytometry analysis. Dead cells were stained with PI and excluded from the analysis. Results were presented as the mean fluorescence of live cells, compared with PBS as a negative control and Ac4ManNAz (AAM) as a positive control, Ac4ManNAz (AAM, CAS: 361154-30-5).
Background: A flow cytometer gives signals particle by particle.

For test [2], the system named is OVCAR3. Kind of test: Flow cytometry analysis of cell labeling (labeling efficiency of azido compounds) in OVCAR3. As for the experimental part:
as §1, §2

Test [3] concerns A549 cells. Kind of test: Flow cytometry analysis of cell labeling (labeling efficiency of azido compounds) in A549 cells. As for the experimental part: as §1, §2

On to `CC(=O)OC1O[C@H](COP(=O)(N[C@@H](C)C(=O)OCc2cccc3ncccc23)Oc2ccccc2)[C@@H](OC(C)=O)[C@H](OC(C)=O)[C@@H]1NC(=O)CN=[N+]=[N-]` (stereo partly drawn) [Compound A27, Acetyl 2-(2-azidoacetylamino)-2-deoxy-3,4-di-O-acetyl-6-O—(((S)-1-quinolin-5-ylmethoxycarbonylethylamino)(phenoxy)phosphoryl)-D-mannopyranoside], for which, in test [1], the AAM % is on record as 109%, the PBS % turned out to be 716% and the “Mean FL (×10^5)” value was 13.6 ×10^5. Besides, in test [2], the AAM % is 93.3%, the PBS % turned out to be 19231% and the “Mean FL (×10^5)” value is recorded as 2.5 ×10^5.

On to `CC(=O)OC[C@H]1OC(OP(=O)(N[C@@H](C)C(=O)OC(C)c2ccccc2)Oc2ccccc2)[C@@H](NC(=O)CN=[N+]=[N-])[C@@H](OC(C)=O)[C@@H]1OC(C)=O` (stereo partly drawn) [Compound B1, (((1S)-1-(1-Phenylethoxy-carbonyl)ethylamino)(phenoxy)phosphoryl) 2-(2-azidoacetylamino)-2-deoxy-3,4,6-tri-O-acetyl-D-mannopyranoside], for which, in test [3], the AAM % is listed as 42%, the PBS % came to 256% and the “Mean FL (×10^5)” value is given as 7.67 ×10^5.

Take `CC(=O)OC1O[C@H](COP(=O)(N[C@@H](C)C(=O)OC(C)C)Oc2ccccc2)[C@@H](OC(C)=O)[C@H](OC(C)=O)[C@@H]1NC(=O)CN=[N+]=[N-]` (stereo partly drawn) [Compound A1, acetyl 2-(2-azidoacetylamino)-2-deoxy-3,4-di-O-acetyl-6-O—(((S)-1-isopropoxy-carbonylethylamino)(phenoxy)phosphoryl)-D-mannopyranoside]: in test [3], the AAM % is recorded as 89%, the PBS % was 540% and the “Mean FL (×10^5)” value was 16.2 ×10^5. Also, in test [1], the AAM % is 101%, the PBS % is listed as 663% and the “Mean FL (×10^5)” value is reported as 12.6 ×10^5.

For the compound `CC(=O)OC1O[C@H](COP(=O)(N[C@@H](C)C(=O)OCc2cccnc2)Oc2ccccc2)[C@@H](OC(C)=O)[C@H](OC(C)=O)[C@@H]1NC(=O)CN=[N+]=[N-]` (stereo partly drawn) [Compound A24, Acetyl 2-(2-azidoacetylamino)-2-deoxy-3,4-di-O-acetyl-6-O—(((S)-1-pyridin-3-ylmethoxycarbonylethylamino)(phenoxy)phosphoryl)-D-mannopyranoside], in test [2], the AAM % is on record as 28.7%, the PBS % is on record as 5923% and the “Mean FL (×10^5)” value was 0.77 ×10^5.

As for `CC(=O)OC1OC(COP(=O)(NC(C)(C)C(=O)OC(C)c2ccccc2)Oc2ccccc2)C(OC(C)=O)C(OC(C)=O)C1NC(=O)CN=[N+]=[N-]` [Compound A4, 2-(2-Azidoacetylamino)-2-deoxy-3,4-di-O-acetyl-6-O-((1-methyl-1-(1-phenyl-ethoxycarbonyl)ethylamino)(phenoxy)phosphoryl)-D-mannopyranoside], in test [3], the AAM % was found to be 51%, the PBS % was 311% and the “Mean FL (×10^5)” value is 9.32 ×10^5.

Consider `CC(=O)OC1OC(COP(=O)(N[C@@H](C)C(=O)OC(C)c2ccccc2)Oc2ccccc2)C(OC(C)=O)C(OC(C)=O)C1NC(=O)CN=[N+]=[N-]` (stereo partly drawn) [Compound A3], for which, in test [3], the AAM % was 48%, the PBS % is reported as 294% and the “Mean FL (×10^5)” value was 8.82 ×10^5.

Turning to `CC(=O)OC1O[C@H](COP(=O)(N[C@@H](C)C(=O)OCc2ccncc2)Oc2ccccc2)[C@@H](OC(C)=O)[C@H](OC(C)=O)[C@@H]1NC(=O)CN=[N+]=[N-]` (stereo partly drawn) [Compound A25, Acetyl 2-(2-azidoacetylamino)-2-deoxy-3,4-di-O-acetyl-6-O—(((S)-1-pyridin-4-ylmethoxycarbonylethylamino)(phenoxy)phosphoryl)-D-mannopyranoside], in test [2], the AAM % is on record as 26.9%, the PBS % is recorded as 5538% and the “Mean FL (×10^5)” value is reported as 0.72 ×10^5.

For the compound `CCC(CC)COC(=O)[C@H](C)NP(=O)(OC[C@H]1OC(OC(C)=O)[C@@H](NC(=O)CN=[N+]=[N-])[C@@H](OC(C)=O)[C@@H]1OC(C)=O)Oc1ccccc1` (stereo partly drawn) [Compound A23, Acetyl 2-(2-azidoacetylamino)-2-deoxy-3,4-di-O-acetyl-6-O—(((S)-1-(2-ethyl-butoxy)carbonylethylamino)(phenoxy)phosphoryl)-D-mannopyranoside], in test [1], the AAM % stood at 98%, the PBS % worked out at 642% and the “Mean FL (×10^5)” value is 12.2 ×10^5.

Turning to `CC(=O)OC1O[C@H](COP(=O)(N[C@@H](C)C(=O)OC(C)(C)C)Oc2ccccc2)[C@@H](OC(C)=O)[C@H](OC(C)=O)[C@@H]1NC(=O)CN=[N+]=[N-]` (stereo partly drawn) [Compound A20, acetyl 2-(2-azidoacetylamino)-2-deoxy-3,4-di-O-acetyl-6-O—(((S)-1-tert-butoxy-carbonylethylamino)(phenoxy)phosphoryl)-D-mannopyranoside], in test [1], the AAM % is listed as 51%, the PBS % was 338% and the “Mean FL (×10^5)” value is listed as 6.43 ×10^5.

Consider `CC(=O)OC1O[C@H](COP(=O)(N[C@@H](C)C(=O)OCc2ccnc3ccccc23)Oc2ccccc2)[C@@H](OC(C)=O)[C@H](OC(C)=O)[C@@H]1NC(=O)CN=[N+]=[N-]` (stereo partly drawn) [Compound A26, Acetyl 2-(2-azidoacetylamino)-2-deoxy-3,4-di-O-acetyl-6-O—(((S)-1-quinolin-4-ylmethoxycarbonylethylamino)(phenoxy)phosphoryl)-D-mannopyranoside], for which, in test [1], the AAM % was 144%, the PBS % is listed as 947% and the “Mean FL (×10^5)” value was 18.0 ×10^5. In addition, in test [2], the AAM % was 89.6%, the PBS % was 18462% and the “Mean FL (×10^5)” value is 2.4 ×10^5.

As to `CCCCCCOC(=O)[C@H](C)NP(=O)(OC[C@H]1OC(OC(C)=O)[C@@H](NC(=O)CN=[N+]=[N-])[C@@H](OC(C)=O)[C@@H]1OC(C)=O)Oc1ccccc1` (stereo partly drawn) [Compound A22, Acetyl 2-(2-azidoacetylamino)-2-deoxy-3,4-di-O-acetyl-6-O—(((S)-1-hexoxy-carbonylethylamino)(phenoxy)phosphoryl)-D-mannopyranoside], in test [1], the AAM % stood at 104%, the PBS % was found to be 684% and the “Mean FL (×10^5)” value is 13.0 ×10^5.

`CCCCOC(=O)[C@H](C)NP(=O)(OC[C@H]1OC(OC(C)=O)[C@@H](NC(=O)CN=[N+]=[N-])[C@@H](OC(C)=O)[C@@H]1OC(C)=O)Oc1ccccc1` (stereo partly drawn) [Compound A18, acetyl 2-(2-azidoacetylamino)-2-deoxy-3,4-di-O-acetyl-6-O—(((S)-1-butoxy-carbonylethylamino)(phenoxy)phosphoryl)-D-mannopyranoside]: in test [1], the AAM % is 99%, the PBS % is on record as 653% and the “Mean FL (×10^5)” value is listed as 12.4 ×10^5.

On to `CC(=O)OC1OC(COP(=O)(N[C@H](C(=O)OC(C)c2ccccc2)C(C)C)Oc2ccccc2)C(OC(C)=O)C(OC(C)=O)C1NC(=O)CN=[N+]=[N-]` (stereo partly drawn) [Compound A5, 2-(2-Azidoacetylamino)-2-deoxy-3,4-di-O-acetyl-6-O-(((1S)-1-(1-phenylethoxy-carbonyl)-2-methylpropylamino)(phenoxy)phosphoryl)-D-mannopyranoside], for which, in test [3], the AAM % was found to be 20%, the PBS % was determined as 118% and the “Mean FL (×10^5)” value is reported as 3.55 ×10^5.

Values taken from patent US20260199382A1, “PHOSPHORAMIDATE MONOSACCARIDES, PHARMACEUTICAL COMPOSITIONS, AND DIAGNOSTIC AND THERAPEUTIC APPLICATIONS” (Surio Therapeutics Co., LTD., priority 2022, published 2026).
